Experimental data: PMC9229949 (Pharmaceutics, 2022)
Like-named read-outs stand apart in the source and are kept apart here.

Assays:
[1] = target: T1, human glutathione reductase (hGR) (Homo sapiens, UniProt P00390); assay: Inhibition of enzymatic activity of recombinant human glutathione reductase; assay type: biochemical; conditions: recombinant enzyme, 15 min preincubation; mean of one experiment; read-out: IC50, Human GR
T1 construct: made in house
T1 sequence (P00390 44-522): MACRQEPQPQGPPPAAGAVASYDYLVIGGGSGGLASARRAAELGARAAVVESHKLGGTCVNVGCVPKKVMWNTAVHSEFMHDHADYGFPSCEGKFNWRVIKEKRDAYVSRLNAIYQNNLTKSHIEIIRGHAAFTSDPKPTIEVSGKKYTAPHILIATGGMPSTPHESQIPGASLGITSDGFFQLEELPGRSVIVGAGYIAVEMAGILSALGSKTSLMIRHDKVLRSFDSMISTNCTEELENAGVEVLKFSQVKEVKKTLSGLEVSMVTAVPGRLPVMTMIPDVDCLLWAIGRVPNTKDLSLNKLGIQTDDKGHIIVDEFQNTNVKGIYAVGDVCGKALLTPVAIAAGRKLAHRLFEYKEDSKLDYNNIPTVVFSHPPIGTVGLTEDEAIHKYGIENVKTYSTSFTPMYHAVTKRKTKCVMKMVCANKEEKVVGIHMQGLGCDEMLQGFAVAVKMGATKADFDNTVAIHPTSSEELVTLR
Method: The codon-optimized sequence for PfTrxR [27, 28] was synthesized and subcloned into pET-15b (Genscript) and expressed and purified as for human glutathione reductase (hGR). Recombinant Schistosoma mansoni (S. mansoni) thioredoxin glutathione reductase (SmTGR), human TrxR (hTrxR), and hGR proteins were expressed and purified as described. TrxR and TGR enzyme inhibition assays were performed in triplicate at 25 °C in 0.1 M potassium phosphate (pH 7.4), 10 mM EDTA, 100 µM NADPH and 0.01% Tween-20. SmTGR (4 nM), hTrxR (4 nM), and PfTrxR (50 nM) were preincubated with the compounds for 15 min. The reaction was started with addition of an equal volume of 5,5′-dithiobis(2-nitrobenzoic acid) (6 mM) and NADPH (100 µM). The increase in A412 during the first 3 min was recorded. […]. The reactions were performed in triplicate. The IC50s were calculated in Prism version 5.01.

[2] = tested on: 3D7 P. falciparum gametocytes stages I/III; assay: P. falciparum young gametocytes (stages I/III), luciferase viability; assay type: cell-based; conditions: Plasmodium falciparum; 3D7 strain, 72 h; mean ± S.D. of one experiment; read-out: IC50, gametocytes of P. falciparum, Stages I/III
Method: The activity of compounds was assessed against young gametocytes (stages I/III) and against mature gametocytes (stage V). […] A volume of 100 μL of 3D7elo1-pfs16-CBG99 gametocytes of 3D7 P. falciparum at 0.5–1% parasitemia and 2% hematocrit were dispensed. […] Luciferase activity was used to determine gametocytes viability. A volume of 100 µL of culture medium was removed from each well to increase hematocrit; 70 µL of resuspended culture was transferred to a black 96-well plate; 70 µL of D-luciferin (1 mM in citrate buffer 0.1 M, pH 5.5) was added. Luminescence measurements were performed after 10 min with 500 ms integration time. The IC50 was extrapolated from nonlinear regression analysis of the concentration–response curve.

[3] = tested on: P. berghei sporozoites in Huh-7 cells; assay: P. berghei hepatic stages: infection of Huh-7 cells by luciferase-expressing sporozoites; assay type: cell-based
Method: Huh-7 cells at 1.0 × 10^4 per well were seeded in 96-well plates the day before drug treatment and infection. The culture medium was replaced by infection medium (culture medium supplemented with gentamicin (50 μg/mL) and amphotericin B (0.8 μg/mL)) containing the appropriate concentration of each compound for approximately 1 h prior to infection with sporozoites of firefly luciferase-expressing P. berghei, freshly obtained through the disruption of salivary glands of infected female Anopheles stephensi mosquitoes. An amount of the DMSO solvent equivalent to that present in the highest compound concentration was used as negative control. Sporozoite addition was followed by centrifugation at 1800× g for 5 min. and parasite infection load was measured 48 h after infection by using a bioluminescence assay (Biotium, Hayward, CA, USA). The effect of the compounds on the viability of Huh-7 cells was assessed by performing the AlamarBlue (Invitrogen, Waltham, MA, USA) assay according to the manufacturer’s protocol.

[4] = tested on: P. falciparum 3D7 (CQ-susceptible) asexual blood stages; assay: In vitro activity against asexual blood stages of P. falciparum, CQ-susceptible strain 3D7 (HRP2 ELISA); assay type: cell-based; conditions: Plasmodium falciparum, 3D7
Method: (§1) The plates were incubated for 72 h at 37 °C in controlled atmosphere. After frozen and thawing the plates, hemolyzed cultures were homogenized by vortexing the plates. The antiparasitic activity was determined using the HRP2 ELISA-based assay Malaria Ag Celisa kit (ref KM2159, Cellabs PTY LDT, Brookvale, Australia). […] IC50s are expressed as means of three to five experiments.

[5] = tested on: P. falciparum W2 (CQ-resistant) asexual blood stages; assay: In vitro activity against asexual blood stages of P. falciparum, CQ-resistant strain W2 (HRP2 ELISA); assay type: cell-based; conditions: Plasmodium falciparum, W2
Method: as §1

β-hematin formation = β-hematin formation inhibition by infrared spectroscopy; assay type: biochemical; parameters: key: Yes indicates β-hematin inhibition; No indicates β-hematin formation; conditions: 3:1 ratio of drug:hematin, qualitative by infrared
Method: The conversion of hemin to β-hematin was determined by infrared (IR) spectroscopy as described by Egan et al.. […] Then, 0.3 mL of 0.1 M HCl and 1.7 mL of sodium acetate buffer ([…], pH 5) were added at the same temperature. […] The solid was dried and IR spectra were obtained using attenuated total reflection (ATR) using chloroquine as a positive control.

[6] = Interaction with reduced glutathione (GSH) by monochlorobimane fluorescence assay
Method: Ten microliters per well of a solution of 2.0 mM reduced glutathione (Sigma-Aldrich, St. Louis, MO, USA, dissolved in PBS pH 7.2) was distributed in a 96-well microplate containing 170 μL/well of DMSO/PBS (1:1; v/v). Stock solutions of compounds were diluted in DMSO, and 10 μL was added in quadruplicate in the respective wells to a final concentration of 0.015 to 0.5 mM. […] After 1 h incubation at room temperature, fluorescence was recorded (λex = 360 nm, λem = 440 nm). Blank subtraction was performed prior to monochlorobimane addition, and controls included untreated wells (no drug) and no GSH. The results were expressed as a percentage of inhibition of GSH binding to monochlorobimane in comparison to control without compound. At least two independent experiments were performed.

CCN(CC)Cc1cc(Nc2ccnc3cc(Cl)ccc23)ccc1O [Amodiaquine (AQ), amodiaquine]
IC50 [1]: > 66700 nM
IC50 [2]: 61 ± 20 nM
inhibition at 10 µM ([3]; Plasmodium berghei, Huh-7, 48 h, read-out: Sporozoites (Inhibition of Infection, %)): 71%
IC50 ([4]; 72 h incubation, HRP2 ELISA, mean ± S.E.M. of at least three experiments, AQ hydrochloride hydrate, PQ diphosphate, CQ diphosphate, read-out: P. falciparum, IC50 ± S.E.M., CQ-Susceptible 3D7): 18 ± 1.6 nM
IC50 ([4]; in vitro antiplasmodial activity, read-out: P. falciparum 3D7 (Cell Based Activity), IC50): 18 ± 2 nM
IC50 ([5]; 72 h incubation, HRP2 ELISA, mean ± S.E.M. of at least three experiments, AQ hydrochloride hydrate, PQ diphosphate, CQ diphosphate, read-out: P. falciparum, IC50 ± S.E.M., CQ-Resistant W2): 86.2 ± 9.4 nM
IC50 ([5]; Figure 5 summary, read-out: CQ-resistant P.f.): 86 ± 9 nM
β-Hematin Inhibitory Activity (BHIA) Determined by IR (β-hematin formation): Yes

[Cl][Au].c1ccc(P(c2ccccc2)c2ccccc2)cc1 [[AuClPPh3]]
IC50 [1]: 1.18 nM
interaction with GSH ([6]; 2 h incubation, 10 to 0.3 drug:GSH molar ratio): able to interact with GSH in a drug-concentration manner
binding to GSH at 24 h versus 2 h incubation ([6]; 24 h versus 2 h incubation): remained almost unaltered
inhibitory activity for the hepatic stages ([3]; up to 10 μM): no inhibitory activity
